These results are taken from ChEMBL document CHEMBL4622940, “Synthesis and dopamine receptor pharmacological evaluations on ring C ortho halogenated 1-phenylbenzazepines” (Bioorg Med Chem Lett, 2020).

Activity calls are given as the source filed them. The rule behind the calls is not given here. Some results are limits rather than exact numbers.

The target of assay [1] is D(1B) dopamine receptor (Homo sapiens, UniProt P21918). The assay can be described thus: Displacement of [3H]SCH23390 from dopamine D5 receptor (unknown origin). (In general: Loss of bound radioactivity is the signal in a displacement assay; it reports binding, not function.)
For assay [2], the target named is T1, D(2) dopamine receptor (Homo sapiens, UniProt P14416). The assay can be described thus: Displacement of [3H]N-methylspiperone from dopamine D2 receptor (unknown origin) at 10 uM relative to control.
For assay [3], the target named is T2, D(1A) dopamine receptor (Homo sapiens, UniProt P21728). Kind of assay: Displacement of [3H]SCH23390 from dopamine D1 receptor (unknown origin).
For assay [4], the species on record is Homo sapiens. Kind of assay: Selectivity index, ratio of Ki for displacement of [3H]SCH23390 from dopamine D5 receptor (unknown origin) to Ki for displacement of [3H]SCH23390 from dopamine D1 receptor (unknown origin).
For assay [5], the target named is T1, D(2) dopamine receptor. Kind of assay: Displacement of [3H]N-methylspiperone from dopamine D2 receptor (unknown origin).
For assay [6], the target named is T2, D(1A) dopamine receptor. Kind of assay: Agonist activity at human dopamine D1 receptor expressed in CHO-K1 cells by cAMP Hunter assay. It counts as functional, cell-based.
Assay [7] deals with T2, D(1A) dopamine receptor. Kind of assay: Antagonist activity at human dopamine D1 receptor expressed in CHO-K1 cells by cAMP Hunter assay. It is filed as functional, cell-based.

T2 sequence (P21728 whole entry): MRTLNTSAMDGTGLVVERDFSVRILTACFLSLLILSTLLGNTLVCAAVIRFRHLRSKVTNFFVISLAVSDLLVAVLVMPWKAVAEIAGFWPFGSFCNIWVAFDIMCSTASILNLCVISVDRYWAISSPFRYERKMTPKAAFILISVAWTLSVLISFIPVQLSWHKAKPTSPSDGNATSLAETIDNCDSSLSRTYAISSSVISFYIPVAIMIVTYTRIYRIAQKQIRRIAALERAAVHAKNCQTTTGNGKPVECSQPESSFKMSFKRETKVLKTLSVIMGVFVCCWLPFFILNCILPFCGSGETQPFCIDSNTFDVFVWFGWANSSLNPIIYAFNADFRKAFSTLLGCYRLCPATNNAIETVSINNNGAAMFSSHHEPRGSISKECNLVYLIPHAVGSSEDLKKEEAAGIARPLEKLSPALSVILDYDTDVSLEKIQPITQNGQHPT
Sequence of D(1B) dopamine receptor (P21918 whole entry): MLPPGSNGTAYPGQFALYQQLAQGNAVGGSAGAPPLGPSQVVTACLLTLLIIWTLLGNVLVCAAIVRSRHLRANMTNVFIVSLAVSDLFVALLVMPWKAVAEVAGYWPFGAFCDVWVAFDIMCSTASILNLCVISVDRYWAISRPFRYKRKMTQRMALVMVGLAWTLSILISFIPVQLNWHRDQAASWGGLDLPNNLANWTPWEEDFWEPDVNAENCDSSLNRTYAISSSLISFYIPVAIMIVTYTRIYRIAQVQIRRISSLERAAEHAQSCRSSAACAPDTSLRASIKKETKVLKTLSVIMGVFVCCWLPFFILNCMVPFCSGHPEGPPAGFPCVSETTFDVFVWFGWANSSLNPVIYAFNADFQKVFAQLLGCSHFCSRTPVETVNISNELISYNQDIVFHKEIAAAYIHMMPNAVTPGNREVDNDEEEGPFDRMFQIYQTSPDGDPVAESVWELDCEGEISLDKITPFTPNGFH
T1 sequence (P14416 whole entry): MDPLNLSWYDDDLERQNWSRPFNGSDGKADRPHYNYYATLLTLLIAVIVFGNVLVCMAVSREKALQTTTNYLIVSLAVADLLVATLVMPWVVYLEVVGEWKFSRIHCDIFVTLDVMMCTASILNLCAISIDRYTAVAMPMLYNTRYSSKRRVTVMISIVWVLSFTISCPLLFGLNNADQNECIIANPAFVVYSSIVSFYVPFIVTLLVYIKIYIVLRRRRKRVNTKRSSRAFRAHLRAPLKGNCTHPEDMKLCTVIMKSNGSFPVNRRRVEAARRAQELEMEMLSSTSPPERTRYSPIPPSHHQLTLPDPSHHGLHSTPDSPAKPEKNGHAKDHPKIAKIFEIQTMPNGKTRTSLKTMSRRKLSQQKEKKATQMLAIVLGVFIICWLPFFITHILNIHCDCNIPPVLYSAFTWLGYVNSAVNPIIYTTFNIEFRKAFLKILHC

In the case of `COc1cc2c(cc1O)C(c1ccccc1Br)CN(C)CC2` (stereo not drawn), the Ki in assay [1] was found to be 47 nM; in assay [3], 16 nM. The same compound returned an inhibition in assay [2] of less than 50%. For the same compound, the Ratio Ki in assay [4] came out at 4.

In the case of `COc1cc2c(cc1O)C(c1ccccc1Br)CNCC2` (stereo not drawn), the Ki in assay [1] was found to be 82 nM; in assay [3], 72 nM. Further, the inhibition in assay [2] is less than 50%. The Ratio Ki in assay [4] is less than 3.

Regarding `C=CCN1CCc2cc(O)c(O)cc2C(c2ccccc2Br)C1` (stereo not drawn), the figures for the Ki in assay [1] and in assay [3] were 442 nM and 133 nM, respectively. In assay [2], the inhibition is less than 50%. The Ratio Ki in assay [4] lay in the range of 3 to 4.

With `COc1cc2c(cc1O)C(c1ccccc1)CNCC2` (stereo not drawn), the Ki came out at 310 nM in assay [1] and 126 nM in assay [3]. The compound further showed an inhibition in assay [2] of less than 50%. In addition, the Ratio Ki in assay [4] is less than 3.

In the case of `Oc1cc2c(cc1O)C(c1ccccc1Br)CNCC2` (stereo not drawn), the Ki in assay [1] came out at 67 nM; in assay [3], 26 nM. The same compound yielded an inhibition in assay [2] of less than 50%.

`COc1cc2c(cc1O)C(c1ccccc1Cl)CNCC2` (stereo not drawn): the Ki in assay [1] turned out to be 483 nM; in assay [3] it was 147 nM. In assay [2], this compound displayed an inhibition of less than 50%. In assay [4], the Ratio Ki is less than 3.

Take `CN1CCc2cc(O)c(O)cc2C(c2ccccc2Br)C1` (stereo not drawn): the Ki in assay [1] is 223 nM; in assay [3], 59.4 nM. This compound also displayed an inhibition in assay [2] of less than 50%. Besides, the Ratio Ki in assay [4] fell in the range of 3 to 4.

For the compound `COc1cc2c(cc1O)C(c1c(Cl)cccc1Cl)CNCC2` (stereo not drawn), the Ki in assay [1] is 25.4 nM; in assay [3], 76.1 nM. In addition, the inhibition in assay [2] was less than 50%.

As for `C=CCN1CCc2cc(OC)c(O)cc2C(c2c(Cl)cccc2Cl)C1` (stereo not drawn), the results for the Ki in assay [1], in assay [5] and in assay [3] were 479 nM, 1510 nM and 1040 nM, respectively.

For `C=CCN1CCc2cc(OC)c(O)cc2C(c2ccccc2Cl)C1` (stereo not drawn), the Ki turned out to be 264 nM in assay [1] and 48.3 nM in assay [3]. Also, the inhibition in assay [2] is less than 50%.

For `COc1cc2c(cc1O)C(c1c(Cl)cccc1Cl)CN(C)CC2` (stereo not drawn), the Ki was found to be 49.1 nM in assay [1] and 145 nM in assay [3]. The same compound returned an inhibition in assay [2] of less than 50%.

As for `COc1cc2c(cc1O)C(c1ccccc1Cl)CN(C)CC2` (stereo not drawn), the Ki is 46.4 nM in assay [1] and 14 nM in assay [3]. Also, in assay [2], the inhibition was less than 50%. Also, in assay [6], the outcome was inactive. The Ratio Ki in assay [4] was determined as 3. This compound gave an IC50 in assay [7] of 9.4 nM.

Take `C=CCN1CCc2cc(OC)c(O)cc2C(c2ccccc2Br)C1` (stereo not drawn): the Ki worked out at 501 nM in assay [1] and 41 nM in assay [3]. For the same compound, the inhibition in assay [2] was less than 50%.

As a reminder, the Ki is the equilibrium dissociation constant of an inhibitor or competing ligand from its target. A word on the inhibition: it is the drop in the measured response relative to a control, in per cent. A low value points to little suppression. As usually defined, the IC50 is the midpoint of a concentration-inhibition curve. A lower IC50 goes with greater potency.
